Results: US20100216732A1, “Azithromycin for the treatment of nodular acne” (priority 2006, published 2010)
Values joined by “and” are separate entries in the source; they are usually repeats but may differ in a detail not shown here. Equal values may be shown once.

Columns and labels:
[1] = test system: nodular cystic acne; settings: Pigatto study, in words; cited from earlier work
[2] = test system: moderate to severe inflammatory acne; settings: 500 mg for three consecutive days in a 10 day cycle, with topical erythromycin; cited from earlier work
[3] = test system: severe acne vulgaris with multiple nodules; assay: Open label clinical study of daily or pulsed oral azithromycin, nodule counts over 3 months; type: in vivo, human; settings: for Nodules in the 2 non-responding patients two months after initiation of therapy: single patients
From the text: The invention is further illustrated by the following non-limiting examples. In the examples, patients included in the study were male or female subjects of any race, 16 years of age or older. presenting with 20-60 inflammatory lesions (papules or pustules), 20 to 150 non-inflammatory lesions (comedones or whiteheads), and 3 to 10 nodules. Patients having severe acne vulgaris with multiple nodules were enrolled in an open label clinical study in which each patient received a daily oral dose of 250 mg of azithromycin for the 3-month duration of the study. Lesion counts were recorded at baseline before the initiation of treatment and at 1, 2, and 3 months following initiation of treatment. […] These 2 patients had 9 and 8 nodules, respectively, at baseline and 8 and 13 nodules, respectively two months after initiation of therapy. Of the favorable responders, two patients who began the study with 3 nodules had 2 nodules at the end of the three month study. The remaining 14 patients who responded favorably to treatment had on average 6.7 nodules at baseline (range 4 to 10 nodules) and improved to having no nodules (10 patients) or at most 1 nodule (4 patients) by the end of the three month course of treatment. Another set of patients with severe acne vulgaris was enrolled in an open label clinical study as in Example 1, except that each patient received a daily oral dose of 250 mg of azithromycin for one week followed by one week of no azithromycin, which cycle was repeated for the 3-month duration of the study. […] These 2 patients had 6 and 10 nodules, respectively, at baseline and 5 and 8 nodules, respectively, two months after initiation of therapy. Three patients had partial clearing of nodules during the study. These patients had 9, 10, and 6 nodules, respectively, at baseline and 3, 4, and 2 nodules, respectively, at the end of the study. Another set of patients with severe acne vulgaris was enrolled in an open label clinical study as in Example 1, except that each patient received a daily oral dose of 125 mg of azithromycin for the 3-month duration of the study. […] These 2 patients had 8 and 3 nodules, respectively, at baseline and 10 and 4 nodules, respectively two months after initiation of therapy. The 18 patients who responded favorably to treatment had on average 5.1 nodules at baseline (range 3 to 8 nodules) and improved to having no nodules (13 patients) or at most 1 nodule (5 patients) at the end of the three month course of treatment.

[4] = test system: lesions of inflammatory acne; settings: pulse-dose regimen, three-times-weekly, versus daily doxycycline, erythromycin, minocycline, tetracycline; cited from earlier work
[5] = Example 1, 250 mg/day oral, 3 months, 18 patients
[6] = Example 2, 250 mg/day every other week, 3 months, 18 patients
[7] = Example 3, 125 mg/day oral, 3 months, 20 patients
[8] = Total Examples 1 to 3, 56 patients

For CC1=C(/C=C/C(C)=C/C=C/C(C)=C\C(=O)O)C(C)(C)CCC1 [isotretinoin], the “Efficacy in treating nodular cystic acne” value [1] is listed as “highly efficacious”.
For CC[C@H]1OC(=O)[C@H](C)[C@@H](O[C@H]2C[C@@](C)(OC)[C@@H](O)[C@H](C)O2)[C@H](C)[C@@H](O[C@@H]2O[C@H](C)C[C@H](N(C)C)[C@H]2O)[C@](C)(O)C[C@@H](C)CN(C)[C@H](C)[C@@H](O)[C@]1(C)O [azithromycin, 9-deoxo-9a-aza-9a-methyl-9a-homoerythromycin A], the “Efficacy in treating moderate to severe acne vulgaris” value [2] is given as “effective”, the “Number of patients that did not respond favorably to treatment” value ([3]; Example 1, 250 mg daily oral, of 18 patients in study longer than one month) is given as 2 and the “Number of patients improved to at most 1 nodule by end of three month treatment” value ([3]; Example 1, 250 mg daily, of remaining 14 favorable responders, average 6.7 nodules at baseline) is given as 4 patients. For the same compound, the “Number of patients improved to having no nodules by end of three month treatment” value ([3]; Example 1, 250 mg daily, of remaining 14 favorable responders, average 6.7 nodules at baseline (range 4 to 10)) was 10 patients, the “Nodules in the 2 non-responding patients two months after initiation of therapy” value ([3]; Example 1, 250 mg daily, 9 and 8 nodules at baseline, respectively) was 8 nodules and 13 nodules and the “Nodules at the end of the three month study in two favorable responders” value ([3]; Example 1, 250 mg daily, two patients who began with 3 nodules) was 2 nodules. The “Number of good responders” value [3, 5] was 16, the “Percentage of good responders” value [3, 5] was 88.9% and the “Percentage of nodules cleared in good responders” value (shortened to “Percentage … in good responders”) ([3]; Example 1, 250 mg/day, 16 good responders) was 92.0%. For the same compound, the “Nodules in good responders after treatment” value (shortened to “Nodules in good responders”) ([3]; Example 1, 250 mg/day, 16 good responders, nodules before 100) was 8, the “Percentage of nodules cleared” value ([3]; Example 1, 250 mg/day, all 18 patients) was 75.2% and the “Nodules remaining after treatment” value ([3]; Example 1, 250 mg/day, all 18 patients, number of nodules before 117) was 29. For the same compound, the “Number of patients improved to at most 1 nodule at end of three month treatment” value ([3]; Example 2, 250 mg daily every other week, of remaining 13 favorable responders, average 6.2 nodules at baseline) was 3 patients, the “Number of patients improved to having no nodules at end of three month treatment” value ([3]; Example 2, 250 mg daily every other week, of remaining 13 favorable responders, average 6.2 nodules at baseline (range 3 to 10)) was 10 patients and the “Nodules in the 2 non-responding patients two months after initiation of therapy” value ([3]; Example 2, 250 mg daily every other week, 6 and 10 nodules at baseline, respectively) was 5 nodules and 8 nodules. For the same compound, the “Nodules at the end of the study in three patients with partial clearing” value ([3]; Example 2, 250 mg daily every other week, single patients, 9, 10 and 6 nodules at baseline, respectively) was 3 nodules and 4 nodules and 2 nodules, the “Number of patients that did not respond favorably to treatment” value ([3]; Example 2, 250 mg daily one week on, one week off, of 18 patients) was 2 and the “Number of good responders” value [3, 6] was 16. For the same compound, the “Percentage of good responders” value [3, 6] was 88.9%, the “Percentage … in good responders” value ([3]; Example 2, 250 mg/day every other week, 16 good responders) was 87.9% and the “Nodules in good responders” value ([3]; Example 2, 250 mg/day every other week, 16 good responders, nodules before 99) was 12. For the same compound, the “Percentage of nodules cleared” value ([3]; Example 2, 250 mg/day every other week, all 18 patients) was 78.3%, the “Nodules remaining after treatment” value ([3]; Example 2, 250 mg/day every other week, all 18 patients, number of nodules before 115) was 25 and the “Number of patients that did not respond favorably to treatment” value ([3]; Example 3, 125 mg daily oral, of 20 patients) was 2. The “Number of patients improved to at most 1 nodule at end of three month treatment” value ([3]; Example 3, 125 mg daily, of 18 favorable responders, average 5.1 nodules at baseline) was 5 patients, the “Number of patients improved to having no nodules at end of three month treatment” value ([3]; Example 3, 125 mg daily, of 18 favorable responders, average 5.1 nodules at baseline (range 3 to 8)) was 13 patients and the “Nodules in the 2 non-responding patients two months after initiation of therapy” value ([3]; Example 3, 125 mg daily, 8 and 3 nodules at baseline, respectively) was 10 nodules and 4 nodules. The “Number of good responders” value [3, 7] was 18, the “Percentage of good responders” value [3, 7] was 90.0% and the “Percentage … in good responders” value ([3]; Example 3, 125 mg/day, 18 good responders) was 94.6%. For the same compound, the “Nodules in good responders” value ([3]; Example 3, 125 mg/day, 18 good responders, nodules before 92) was 5, the “Percentage of nodules cleared” value ([3]; Example 3, 125 mg/day, all 20 patients) was 81.6% and the “Nodules remaining after treatment” value ([3]; Example 3, 125 mg/day, all 20 patients, number of nodules before 103) was 19. For the same compound, the “Nodules in good responders” value ([3]; Total Examples 1 to 3, 50 good responders, nodules before 291) was 25, the “Number of good responders” value [3, 8] was 50 and the “Percentage of nodules cleared” value [3, 8] was 78.2%. For the same compound, the “Nodules remaining after treatment” value ([3]; Total Examples 1 to 3, 56 patients, number of nodules before 335) was 73, the “Efficacy in treating nodular acne vulgaris, including severe nodular acne vulgaris” value ([3]; systemic administration, Examples 1 to 3) was “highly efficacious” and the “Efficacy in treating lesions of inflammatory acne” value [4] was “as effective as other antibiotics tested”.
